Reference: ChEMBL document CHEMBL5604061, “ASAP - WNV NS2B-NS3 protease fluorescence dose response” (2024)
pIC50: −log10 of the molar value. Where “and” joins values, the source holds several entries; their conditions need not be identical. Identical values can stand only once.

What follows are molecules tested against T1, NS3 (West Nile virus, UniProt K4FQI5) (assay: Functional biochemical assay to identify treatments for viral infectious disease that targets West Nile NS2B-NS3 protease. Utilizing a direct enzyme activity measurement method, reading the fluorescence intensity is used to characterize the relative potency of inhibitors as IC50.).
T1 sequence (K4FQI5 whole entry): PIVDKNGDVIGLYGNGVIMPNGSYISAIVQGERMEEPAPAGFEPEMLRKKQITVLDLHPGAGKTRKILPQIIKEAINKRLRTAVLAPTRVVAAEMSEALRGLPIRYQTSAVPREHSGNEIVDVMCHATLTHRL
Design: species or system NY-99
`CN(c1ccc2c(c1)CNC2)[C@H](C(=O)NCC(F)F)c1cc(Cl)cc(C2CC2)c1` showed a pIC50 of 6.88.
`CC(C)(c1nc2c(C(=O)Nc3ccc4c(c3)CNC4)cc(F)cc2[nH]1)S(C)(=O)=O` was tested, and the pIC50 was 5.01.
Work on `CCc1cc2c(cc1NC(=O)c1cc(F)cc3[nH]ncc13)CNC2` yielded a pIC50 of 5.80.
For `CCCC[C@H](NC(C)=O)C(=O)N[C@H](C(=O)NCc1ccc(C(N)=O)cc1)c1ccc(OCc2ccccc2)cc1`, the pIC50 was < 4.00.
In the case of `Cc1[nH]c2ccccc2c1CN1CCC(c2nc3ccccc3s2)CC1`, the pIC50 was < 4.00.
`O=C(O)c1cc(Cl)c(F)cc1S(=O)(=O)Nc1ccc(Oc2ccccc2Cl)cc1` showed a pIC50 of 4.49.
With `CCCn1cc2c(C(=O)Nc3ccc4c(c3)CNC4)cc(Cl)cc2n1` the pIC50 was 5.71.
`O=C(NCC(F)F)[C@H](Nc1ccc2c(c1)CNC2)c1cc(Br)cc2[nH]ccc12` showed a pIC50 of 6.25.
In the case of `O=C(Nc1ccc2c(c1)CNC2)c1cccc(-c2cnco2)c1`, the pIC50 was 4.42.
`CCCCCC(=O)N[C@H](C(=O)N1CCCCC1)c1ccc(OCc2ccccc2)cc1` was tested, and the pIC50 was < 4.00.
`O=C(Nc1ccc2c(c1)CNC2)c1cc(F)c2[nH]c(=O)[nH]c2c1` gave a pIC50 of 4.75.
`O=C(Nc1ccc2c(c1)CNC2)c1ccc2c(C3=CCNCC3)csc2c1` showed a pIC50 of 5.12.
Molecule `O=C(Nc1ccc2c(c1)CNC2)c1cc(Cl)cc(C2CC2)c1` has a pIC50 of 4.59.
Molecule `O=C(NCC(F)F)[C@H](Nc1ccc2c(c1)CNC2)c1cc(Cl)ccc1Sc1ccccc1` has a pIC50 of 5.02.
With `O=C(NCC(F)F)[C@H](Nc1ccc2c(c1)CNC2)c1cc(Cl)cc(C2CC2)c1` the IC50 was 129 nM (2×) and 840 nM.
Work on `O=C(NCC(F)(F)F)c1cc(Cl)c(F)cc1NS(=O)(=O)c1ccc(Oc2ccccc2Cl)cc1` yielded a pIC50 of 5.03.
Work on `NCc1cccc(CNC(=O)[C@H](NC(=O)OCc2ccccc2)c2ccc(OCc3ccccc3)cc2)c1` yielded a pIC50 of 4.88.
In the case of `N=C(N)NCCc1cccc(B(O)O)c1`, the pIC50 was < 4.00.
In the case of `O=C(Nc1ccc2c(c1)CNC2)c1cc(Cl)cc2[nH]c(COc3ccccn3)nc12`, the pIC50 was < 4.00.
Work on `CC(C)CNC(=O)c1cc(Cl)c(F)cc1NS(=O)(=O)c1ccc(Oc2ccccc2Cl)cc1` yielded a pIC50 of 4.60.
Molecule `CCc1cccc(-c2nc3c(C(=O)Nc4ccc5c(c4)CNC5)cc(F)cc3[nH]2)c1` has a pIC50 of 4.72.
For `Cc1ncc(-c2cc(F)cc(C(=O)Nc3ccc4c(c3)CNC4)c2)o1`, the pIC50 was 5.18.
Work on `O=C(Nc1ccc2c(c1)CNC2)c1cc(Cl)cc2ccncc12` yielded a pIC50 of 5.01.
In the case of `O=C(Nc1cc2c(c(-c3ccnnc3)c1)CNC2)c1cc(Cl)cc2[nH]ncc12`, the pIC50 was 5.51.
`COCc1cc(Cl)cc([C@H](Nc2ccc3c(c2)CNC3)C(=O)NCC(F)F)c1` gave a pIC50 of 6.81.
`O=C(Nc1ccc2c(c1)CNCC2)c1cc(Cl)cc2[nH]ncc12` gave a pIC50 of 4.58.
With `CC(C)(C)c1cc(Br)cc(C(=O)Nc2ccc3c(c2)CNC3)c1` the pIC50 was 4.05.
With `Cc1nc2c(C(=O)Nc3ccc4c(c3)CNC4)cc(Cl)cc2[nH]1` the pIC50 was < 4.91.
`O=C(NCC1CCOCC1)[C@H](Nc1ccc2c(c1)CNC2)c1cc(Cl)cc2[nH]ncc12` was tested, and the pIC50 was 5.64.
`N#Cc1cccc(-c2nc3c(C(=O)Nc4ccc5c(c4)CNC5)cc(Cl)cc3[nH]2)c1` gave a pIC50 of 5.12.
Molecule `C#Cc1cc(Cl)cc(C(=O)Nc2ccc3c(c2)CNC3)c1` has a pIC50 of 4.23.
Work on `O=C(NC1CCOCC1)[C@H](Nc1ccc2c(c1)CNC2)c1cc(Cl)cc(C2CC2)c1` yielded a pIC50 of 6.73.
In the case of `O=C(NS(=O)(=O)C1CC1)c1cc(Cl)ccc1NS(=O)(=O)c1ccc(Oc2ccccc2Cl)cc1`, the pIC50 was 4.12.
With `N[C@H]1Cc2ccc(NC(=O)c3cc(Cl)cc4[nH]ncc34)cc2C1` the pIC50 was 4.29.
In the case of `Cc1cc(C(=O)Nc2ccc3c(c2)CNC3)c2cn[nH]c2c1`, the pIC50 was 5.02.
`CSCCCNC(=O)[C@H](Nc1ccc2c(c1)CNC2)c1cc(Cl)cc(C2CC2)c1` showed a pIC50 of 6.24.
`O=C(Nc1ccc2c(c1)CNC2)c1cc(F)cc2[nH]nnc12` showed a pIC50 of 5.30.
In the case of `O=C(Nc1ccc2c(c1)CNC2)c1cc(Br)cc2c1OCO2`, the pIC50 was < 4.00.
In the case of `O=C(Nc1cc2c(cc1Br)CNC2)c1cc(F)cc2[nH]ncc12`, the pIC50 was 5.90.
Molecule `CCSc1ccc(Cl)cc1C(=O)Nc1ccc2c(c1)CNC2` has a pIC50 of 4.09.
In the case of `N=C(N)Nc1ccc(NC(=O)Oc2ccccc2)cc1`, the pIC50 was < 4.00.
With `O=C(Nc1ccc2c(c1)CNC2)c1cc(F)cc(-c2c[nH]c(=O)c(F)c2)c1` the pIC50 was 6.18.
`O=C(NC[C@H]1CCCO1)[C@H](Nc1ccc2c(c1)CNC2)c1cc(Cl)cc(C2CC2)c1` showed a pIC50 of 6.30.
`CC(C)NC(=O)[C@H](Nc1ccc2c(c1)CN(C)C2)c1cc(Cl)cc2[nH]ncc12` showed a pIC50 of 5.78.
With `CN1Cc2ccc(NC(=O)c3cc(Cl)cc4[nH]ncc34)cc2C1` the pIC50 was < 4.00.
In the case of `O=C(Nc1ccc2c(c1)CN[C@H]2C[C@H](O)CO)c1cc(F)cc2[nH]ncc12`, the pIC50 was 5.62.
Molecule `NCCc1cccc(NC(=O)c2cc(Cl)cc(NC(=O)OCc3ccccc3)c2)c1` has a pIC50 of 4.63.
With `O=C(NCC(F)F)[C@H](Nc1ccc2c(c1)CNC2)c1cc(Cl)cc2ccoc12` the pIC50 was 6.73.
With `Cn1cc(CNC(=O)[C@H](Nc2ccc3c(c2)CNC3)c2cc(Cl)cc(C3CC3)c2)cn1` the pIC50 was 5.97.
With `N=C(N)NCc1ccc(OC(=O)Nc2ccccc2)cc1` the pIC50 was < 4.00.
`O=C(Nc1ccc2c(c1)CNC2)c1cc(F)cc(C2=CCCOC2)c1` was tested, and the pIC50 was 5.02.
In the case of `CCCCCC(=O)N[C@H](C(=O)Nc1ccc(C(N)=O)cc1)c1ccc(OCc2ccccc2)cc1`, the pIC50 was < 4.00.
`C=C[C@H]1NCc2cc(NC(=O)c3cc(F)cc4[nH]ncc34)ccc21` showed a pIC50 of 5.51.
Work on `O=C(Nc1ccc2c(c1)CNC2)c1cc(F)cc2[nH]c(-c3cnccc3O)nc12` yielded a pIC50 of 5.00.
`O=C(Nc1ccc2c(c1)CNC2)c1cncc2[nH]ncc12` was tested, and the pIC50 was 4.68.
With `NCc1cccc(NC(=O)C[C@@H](NC(=O)OCc2ccccc2)c2ccc(OCc3ccccc3)cc2)c1` the pIC50 was 5.21.
Molecule `N[C@H]1Cc2ccc(NC(=O)c3cc(Cl)cc(NC(=O)OCc4ccccc4)c3)cc2C1` has a pIC50 of 4.45.
`O=C(NCC(F)F)[C@H](Nc1ccc2c(c1)CNC2)c1cc(Cl)cc(Cl)c1Cl` showed a pIC50 of 6.03.
In the case of `N#CCCNC(=O)[C@H](Nc1ccc2c(c1)CNC2)c1cc(Cl)cc(C2CC2)c1`, the pIC50 was 6.37.
`C=CC[C@H]1NCc2cc(NC(=O)c3cc(F)cc4c3CC(=O)N4)ccc21` gave a pIC50 of 5.72.
In the case of `O=C(Nc1ccc(F)nc1)Oc1ccccc1`, the pIC50 was < 4.00.
Work on `Cc1c(C(=O)Nc2cc(CCCN)ccn2)cc(C2CC2)n1C` yielded a pIC50 of 4.23.
`O=C(Nc1ccc2c(c1)CNC2)c1cc(Cl)cc2[nH]c(-c3cnc(C4CC4)o3)nc12` was tested, and the pIC50 was 4.64.
Molecule `O=C(Nc1ccc2c(c1)CNC2)c1cc(Cl)cc(N2CCCC2=O)c1` has a pIC50 of 4.61.
With `Nc1nc2c(Br)cc(C(=O)Nc3ccc4c(c3)CNC4)cc2s1` the pIC50 was < 4.00.
Molecule `O=C(NCc1cccnc1)[C@H](Nc1ccc2c(c1)CNC2)c1cc(Cl)cc2[nH]ncc12` has a pIC50 of 5.86.
Molecule `NCCc1cc(Cl)cc(C(=O)Nc2cccc(CN)c2)c1` has a pIC50 of 5.26.
Work on `CC(C)NC(=O)[C@H](Nc1ccc2c(c1)CNC2)c1cccc2cn[nH]c12` yielded a pIC50 of 4.85.
In the case of `COc1cc(Br)cc(C(=O)Nc2ccc3c(c2)CNC3)c1`, the pIC50 was 4.03.
`CC(C)Cn1cc2c(C(=O)Nc3ccc4c(c3)CNC4)cc(Cl)cc2n1` showed a pIC50 of 4.83.
Work on `N#Cc1cc2c(cc1NC(=O)c1cc(F)cc3[nH]ncc13)CNC2` yielded a pIC50 of 6.62.
`COc1ccc(-c2nc3c(C(=O)Nc4ccc5c(c4)CNC5)cc(F)cc3[nH]2)nn1` gave a pIC50 of 5.43.
Molecule `CNC(=O)[C@H](Nc1ccc2c(c1)CNC2)c1cc(Cl)cc(C2CC2)c1` has a pIC50 of 6.35.
In the case of `CC(C)c1cc(Br)cc(C(=O)Nc2ccc3c(c2)CNC3)c1`, the pIC50 was 4.03.
`Cc1cc(-c2cc(F)cc(C(=O)Nc3ccc4c(c3)CNC4)c2)[nH]n1` was tested, and the pIC50 was 5.43.
`CNC(=O)[C@H](Nc1cc(CN)cc(C(=O)O)c1)c1cc(Cl)cc(C2CC2)c1` was tested, and the pIC50 was 5.83.
